Laboratory results taken from patent US6001851A, “HIV protease inhibitors” (Agouron Pharmaceuticals, Inc., priority 1998, dated 1999).
Like-named read-outs stand apart in the source and are kept apart here. One block for each compound: values may come before it.

Assays:
HIV-1 RF = experiment: Cell protection assay (MTT dye reduction): acute infection of CEM-SS cells with HIV-1 RF; format: cell-based, HIV-1 strain RF (in human T cell line CEM-SS); settings: for EC95: read-out: ED95; for Therapeutic index: TC50/ED50, CEM-SS cells, 8640 min
Experimental: (§1) The CEM-SS and MT-2 human T cell lines and HIV-1 strains RF and IIIB were obtained from the AIDS Research and Reference Program, Division of AIDS, NIAID, and NIH.
(§2) The inhibitory effects of each agent on HIV-1 replication were measured by the MTT dye reduction method (Alley, M. C. et al., Cancer Res. 48: 589-601 (1988)). Compounds were dissolved in DMSO at a concentration of 40 mg/ml then diluted 1:200 in culture medium (RPMI, supplemented with 10% fetal bovine serum). From each diluted stock, 100 μl was added to a 96-well plate and serial half-log dilutions were prepared. In separate tubes, MT-2 cells and CEM-SS cells were infected with HIV-1 IIIB or HIV-1 RF at a multiplicity of infection (m.o.i.) of 0.01 and 0.03, respectively. Following a 4-hour adsorption period, […] of infected or uninfected cells were added to the wells of the drug containing plate to give a final concentration of 1×10^4 cells/well. Six days (CEM-SS cells) or 7 days (MT-2 cells) later, MTT (5 mg/ml) was added to test plates and the amount of formazan produced was quantified spectrophotometrically at 570 nm. Data were expressed as the percentage of formazan produced in drug-treated cells compared to formazan produced in wells of uninfected, drug-free cells. The EDS50 was calculated as the concentration of drug that increased the percentage of formazan production in infected, drug-treated cells to 50% of that produced by uninfected, drug-free cells. Cytotoxicity (TC50) was calculated as the concentration of drug that decreased the percentage of formazan produced in uninfected, drug-treated cells to 50% of that produced in uninfected, drug-free cells. The therapeutic index (TI) was calculated by dividing the cytotoxicity (TC50) by the antiviral efficacy (ED50).

[1] = Cytotoxicity in uninfected CEM-SS cells (MTT); format: cell-based; settings: human
Experimental: as §1, §2

HIV-1 IIIB = experiment: Cell protection assay (MTT dye reduction): acute infection of MT-2 cells with HIV-1 IIIB; format: cell-based, HIV-1 strain IIIB (in human T cell line MT-2); settings: for Therapeutic: therapeutic index TC50/ED50, MT-2 cells, 10080 min
Experimental: as §1, §2

[2] = Cytotoxicity in uninfected MT-2 cells (MTT); format: cell-based; settings: human
Experimental: as §1, §2

HIV-1 protease (Q7S) = biological target: T1, HIV-1 protease (Q7S) (Human immunodeficiency virus type 1 group M subtype B, UniProt P03366, Q507S); experiment: Tight-binding kinetics assay, HIV-1 protease inhibition (modified chromogenic assay); format: biochemical, HIV-1 (viral strain IIIB)
T1 construct: HIV-1 protease gene was isolated from the viral strain IIIB; made in house; host or cells: E. coli BL21(DE3), plasmid pGZ/HP-19Q7S#9
Experimental: Proteolytic activity of purified HIV-1 protease was measured using a modified chromogenic assay developed by Richards at al. (Richards, A. D. et al. J. Biol. Chem., 256, 773-7736 (1990)). […] The assay was carried out in 0.5 M NaCl, 50 mM MES pH 5.6, 5 mM DDT, and 2% DMSO at 37° C. Cleavage of the scissile bond between leucine and paranitro-phenylalanine (Phe para-NO2) was assayed by spectrophotometric monitoring of the decrease on absorbance at 305 nm.

[3] = Metabolite obtained from the plasma of patients; format: in vivo; settings: plasma of patients administered the N-t-butylcarboxamide methanesulfonic acid salt of U.S. Pat. No. 5,484,926
Description: A process for making compound 21 is provided below.

[4] = uninfected CEM-SS cells, 6 days, read-out: TC50
[5] = uninfected MT-2 cells, 7 days, read-out: TC50
[6] = Human immunodeficiency virus 1, 144 h, CEM-SS cells, HIV-1 RF, m.o.i. 0.03, 6 days, read-out: ED50 (the source's name)
[7] = Human immunodeficiency virus 1, 144 h, CEM-SS cells, HIV-1 RF, m.o.i. 0.03, 6 days
[8] = Human immunodeficiency virus 1, MT2, 168 h, MT-2 cells, HIV-1 IIIB, m.o.i. 0.01, 7 days, read-out: ED50 (the source's name)

Compound: Cc1cn([C@H]2C[C@H](N=[N+]=[N-])[C@@H](CO)O2)c(=O)[nH]c1=O [AZT, azidothymidine]
EC50 (HIV-1 RF; Human immunodeficiency virus 1, CEM-SS, 144 h, read-out: ED50): 52.3 nM
EC95 (HIV-1 RF; Human immunodeficiency virus 1, CEM-SS, 144 h): 0.543 µM
Therapeutic index (HIV-1 RF; HIV-1 RF): > 7161
CC50 at 144 h [1, 4]: > 374 µM
EC50 (HIV-1 IIIB; Human immunodeficiency virus 1, IIIB, MT2, 168 h, read-out: ED50): 431 nM
Therapeutic (HIV-1 IIIB; HIV-1 IIIB): 254
CC50 at 168 h [2, 5]: 109 µM

Compound: Cc1c(O)cccc1C(=O)NC(CSc1ccccc1)C(O)CN1CC2CCCCC2CC1C(=O)NC(C)(C)CO (stereo not drawn) [Compound 21, [3S-[2(2S*,3S*),3 alpha,4abeta,8abeta]]-N-(1,1-dimethyl-2-hydroxyethyl)decahydro-2-[2-hydroxy-3-[(3-hydroxy-2-methylbenzoyl)amino]-4-(phenylthio)butyl]-3-isoquinolinecarboxamide]
Ki (HIV-1 protease (Q7S); tight binding kinetics, 200 uM substrate, pH 5.6, 37° C., Morrison fit): 5.6 ± 0.91 nM
EC50 (HIV-1 RF; [6]): 34.2 nM
EC95 (HIV-1 RF; [7]): 0.154 µM
Therapeutic index (HIV-1 RF; HIV-1 RF): 2825
CC50 at 144 h [1, 4]: 96.6 µM
EC50 (HIV-1 IIIB; [8]): 85.6 nM
Therapeutic (HIV-1 IIIB; HIV-1 IIIB): 1082
CC50 at 168 h [2, 5]: 92.6 µM
obtained as a metabolite [3]: obtained as a metabolite from the plasma of patients

EC50 (HIV-1 RF; [6]): 94.7 nM
EC50 (HIV-1 IIIB; [8]): 5920 nM
Compound: Nc1ccn([C@H]2CC[C@@H](CO)O2)c(=O)n1 [ddC, dideoxycytidine]
EC95 (HIV-1 RF; [7]): 0.142 µM
Therapeutic index (HIV-1 RF; HIV-1 RF): 398
CC50 at 144 h ([1]; cem-ss cells): 37.7 µM
Therapeutic (HIV-1 IIIB; HIV-1 IIIB): 30
CC50 at 168 h ([2]; mt-2 cells): 176 µM

Compound: His-Lys-Ala-Arg-Val-Leu-Phe(paraNO2)-Glu-Ala-Nle-Ser-NH2
Km (HIV-1 protease (Q7S); substrate, Q7S HIV-1 protease, 0.5 M NaCl, 50 mM MES pH 5.6, 2% DMSO, 37° C., read-out: Michaelis constant (Km)): 59 ± 17 µM
